The target of one experiment is Activin receptor type-2B (Homo sapiens, UniProt Q13705).
The target of experiment [1] is Calcium/calmodulin-dependent protein kinase kinase 2 (Homo sapiens, UniProt Q96RR4).
The target of experiment [2] is Cyclin-dependent kinase 1 (Homo sapiens, UniProt P06493).
For experiment [3], the target named is Epithelial discoidin domain-containing receptor 1 (Homo sapiens, UniProt Q08345).
A further experiment addresses Ephrin type-A receptor 7 (Homo sapiens, UniProt Q15375).
Experiment [4] addresses T1, Phenylalanine--tRNA ligase beta subunit (Homo sapiens, UniProt Q9NSD9).
T1 sequence (Q9NSD9 whole entry): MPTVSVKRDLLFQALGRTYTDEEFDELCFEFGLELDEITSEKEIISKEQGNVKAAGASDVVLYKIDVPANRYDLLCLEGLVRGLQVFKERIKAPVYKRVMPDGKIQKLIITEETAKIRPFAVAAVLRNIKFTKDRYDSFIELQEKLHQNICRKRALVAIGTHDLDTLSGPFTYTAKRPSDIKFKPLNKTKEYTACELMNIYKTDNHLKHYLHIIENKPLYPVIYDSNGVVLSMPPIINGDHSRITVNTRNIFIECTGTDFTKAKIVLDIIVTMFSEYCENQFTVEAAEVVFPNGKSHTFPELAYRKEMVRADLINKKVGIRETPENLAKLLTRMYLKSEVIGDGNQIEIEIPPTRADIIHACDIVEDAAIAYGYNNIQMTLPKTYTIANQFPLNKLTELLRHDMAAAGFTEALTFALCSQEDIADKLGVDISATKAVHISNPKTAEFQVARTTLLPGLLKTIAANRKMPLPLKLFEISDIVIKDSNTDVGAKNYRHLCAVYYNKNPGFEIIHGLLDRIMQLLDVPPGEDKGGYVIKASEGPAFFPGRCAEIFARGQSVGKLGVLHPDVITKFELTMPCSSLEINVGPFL

In experiment [5] the target is Tyrosine-protein kinase HCK (Homo sapiens, UniProt P08631).
Experiment [6] concerns the target Tyrosine-protein kinase JAK1 (Homo sapiens, UniProt P23458).
Experiment [7] concerns the target T2, Mitogen-activated protein kinase 15 (Homo sapiens, UniProt Q8TD08).
T2 sequence (Q8TD08 whole entry): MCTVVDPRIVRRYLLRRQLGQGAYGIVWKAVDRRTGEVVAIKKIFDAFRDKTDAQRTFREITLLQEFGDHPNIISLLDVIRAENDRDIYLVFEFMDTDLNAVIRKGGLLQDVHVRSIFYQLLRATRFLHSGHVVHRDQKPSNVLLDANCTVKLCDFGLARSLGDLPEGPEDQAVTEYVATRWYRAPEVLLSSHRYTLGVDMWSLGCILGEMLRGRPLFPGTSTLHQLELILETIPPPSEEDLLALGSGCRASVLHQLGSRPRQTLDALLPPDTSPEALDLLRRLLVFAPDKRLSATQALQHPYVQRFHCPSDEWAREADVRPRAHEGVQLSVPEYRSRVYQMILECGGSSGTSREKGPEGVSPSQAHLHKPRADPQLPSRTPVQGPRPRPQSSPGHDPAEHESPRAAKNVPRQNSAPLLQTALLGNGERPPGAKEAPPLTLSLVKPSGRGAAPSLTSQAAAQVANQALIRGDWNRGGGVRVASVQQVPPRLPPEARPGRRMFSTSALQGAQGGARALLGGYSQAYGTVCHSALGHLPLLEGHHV

In experiment [8] the target is T3, MAP/microtubule affinity-regulating kinase 4 (Homo sapiens, UniProt Q96L34).
T3 sequence (Q96L34 whole entry): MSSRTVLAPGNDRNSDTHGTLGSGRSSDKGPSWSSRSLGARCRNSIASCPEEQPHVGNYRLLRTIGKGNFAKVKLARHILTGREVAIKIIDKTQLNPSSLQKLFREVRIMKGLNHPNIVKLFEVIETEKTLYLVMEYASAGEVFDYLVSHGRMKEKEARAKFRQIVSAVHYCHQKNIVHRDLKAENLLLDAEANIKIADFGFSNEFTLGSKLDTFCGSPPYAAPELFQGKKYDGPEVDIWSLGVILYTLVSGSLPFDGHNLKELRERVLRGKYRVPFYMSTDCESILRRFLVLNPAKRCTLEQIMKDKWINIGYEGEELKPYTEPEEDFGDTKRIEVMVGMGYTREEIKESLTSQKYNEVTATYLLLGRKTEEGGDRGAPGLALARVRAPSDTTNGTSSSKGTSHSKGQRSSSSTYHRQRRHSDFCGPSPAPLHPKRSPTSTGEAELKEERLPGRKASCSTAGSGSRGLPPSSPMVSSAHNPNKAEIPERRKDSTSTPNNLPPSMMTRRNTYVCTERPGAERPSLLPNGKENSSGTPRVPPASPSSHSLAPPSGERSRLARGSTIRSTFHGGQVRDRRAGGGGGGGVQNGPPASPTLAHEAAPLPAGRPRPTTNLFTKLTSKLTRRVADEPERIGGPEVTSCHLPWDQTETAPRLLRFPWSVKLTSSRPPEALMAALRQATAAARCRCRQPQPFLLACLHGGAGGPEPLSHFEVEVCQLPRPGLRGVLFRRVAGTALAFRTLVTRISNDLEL

The target of experiment [9] is Serine/threonine-protein kinase pim-1 (Homo sapiens, UniProt P11309).
Experiment [10] concerns the target Ribosomal protein S6 kinase alpha-5 (Homo sapiens, UniProt O75582).

For eleven compounds, Kd results are on record in ChEMBL document CHEMBL3991601, “The target landscape of clinical kinase drugs” (Science, 2017).

Calls of active or inactive are those of the source. Rule as the data show it, for most assays here: actives have a measured Kd and inactives only a lower limit.
Also: in the data inactive means no Kd found up to 30 µM.

Sequence of Cyclin-dependent kinase 1 (P06493 whole entry, the tested form may be a part): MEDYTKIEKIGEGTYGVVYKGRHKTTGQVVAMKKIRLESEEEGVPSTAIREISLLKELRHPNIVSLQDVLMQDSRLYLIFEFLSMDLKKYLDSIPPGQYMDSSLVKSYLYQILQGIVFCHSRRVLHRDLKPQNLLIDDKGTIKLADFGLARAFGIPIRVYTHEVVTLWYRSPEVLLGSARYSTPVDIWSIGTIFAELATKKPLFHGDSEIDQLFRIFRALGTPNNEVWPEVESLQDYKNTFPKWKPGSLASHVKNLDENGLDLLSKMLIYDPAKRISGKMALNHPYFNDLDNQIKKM
Sequence of Tyrosine-protein kinase HCK (P08631 whole entry): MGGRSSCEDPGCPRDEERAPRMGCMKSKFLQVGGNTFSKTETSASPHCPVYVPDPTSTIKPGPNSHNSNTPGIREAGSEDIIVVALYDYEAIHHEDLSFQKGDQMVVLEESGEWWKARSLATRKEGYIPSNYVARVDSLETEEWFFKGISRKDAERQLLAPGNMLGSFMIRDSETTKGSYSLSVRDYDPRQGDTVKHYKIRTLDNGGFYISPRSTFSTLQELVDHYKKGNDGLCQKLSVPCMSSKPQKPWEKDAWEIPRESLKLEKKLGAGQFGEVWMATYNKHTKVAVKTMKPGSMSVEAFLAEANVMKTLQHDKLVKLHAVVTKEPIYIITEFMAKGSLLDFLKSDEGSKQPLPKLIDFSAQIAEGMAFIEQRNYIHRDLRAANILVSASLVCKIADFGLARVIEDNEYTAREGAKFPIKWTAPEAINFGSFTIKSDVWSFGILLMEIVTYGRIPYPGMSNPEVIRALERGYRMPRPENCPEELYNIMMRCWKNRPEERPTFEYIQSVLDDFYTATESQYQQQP
Sequence of Serine/threonine-protein kinase pim-1 (P11309 whole entry): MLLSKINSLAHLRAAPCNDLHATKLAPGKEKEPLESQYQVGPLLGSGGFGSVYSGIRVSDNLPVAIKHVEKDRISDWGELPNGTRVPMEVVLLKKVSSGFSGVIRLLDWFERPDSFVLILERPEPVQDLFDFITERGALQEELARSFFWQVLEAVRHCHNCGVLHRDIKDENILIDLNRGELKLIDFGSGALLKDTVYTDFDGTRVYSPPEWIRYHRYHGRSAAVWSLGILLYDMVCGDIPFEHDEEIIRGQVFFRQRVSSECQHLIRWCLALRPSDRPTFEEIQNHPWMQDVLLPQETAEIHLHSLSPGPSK
Sequence of Ribosomal protein S6 kinase alpha-5 (O75582 whole entry): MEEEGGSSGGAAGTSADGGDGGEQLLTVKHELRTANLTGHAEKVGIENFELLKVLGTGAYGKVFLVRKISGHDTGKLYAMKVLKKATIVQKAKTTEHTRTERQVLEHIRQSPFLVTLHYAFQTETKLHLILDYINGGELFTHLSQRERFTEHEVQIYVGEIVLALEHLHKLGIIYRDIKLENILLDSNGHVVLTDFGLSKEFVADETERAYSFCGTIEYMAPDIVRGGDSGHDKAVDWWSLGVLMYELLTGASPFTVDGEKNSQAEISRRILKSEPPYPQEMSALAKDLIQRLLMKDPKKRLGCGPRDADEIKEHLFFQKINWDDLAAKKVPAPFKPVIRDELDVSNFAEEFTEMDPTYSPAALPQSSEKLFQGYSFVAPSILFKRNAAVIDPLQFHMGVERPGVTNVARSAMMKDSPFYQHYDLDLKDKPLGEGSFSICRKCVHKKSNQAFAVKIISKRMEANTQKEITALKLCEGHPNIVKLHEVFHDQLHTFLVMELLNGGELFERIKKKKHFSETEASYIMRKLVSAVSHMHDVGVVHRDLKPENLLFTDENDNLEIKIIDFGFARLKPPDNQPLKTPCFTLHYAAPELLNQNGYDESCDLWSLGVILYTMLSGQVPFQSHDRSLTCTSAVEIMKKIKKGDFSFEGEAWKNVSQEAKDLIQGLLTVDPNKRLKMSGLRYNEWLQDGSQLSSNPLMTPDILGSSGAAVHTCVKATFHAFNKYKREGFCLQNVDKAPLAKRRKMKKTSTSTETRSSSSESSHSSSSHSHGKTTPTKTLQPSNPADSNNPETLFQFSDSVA
Sequence of Tyrosine-protein kinase JAK1 (P23458 whole entry): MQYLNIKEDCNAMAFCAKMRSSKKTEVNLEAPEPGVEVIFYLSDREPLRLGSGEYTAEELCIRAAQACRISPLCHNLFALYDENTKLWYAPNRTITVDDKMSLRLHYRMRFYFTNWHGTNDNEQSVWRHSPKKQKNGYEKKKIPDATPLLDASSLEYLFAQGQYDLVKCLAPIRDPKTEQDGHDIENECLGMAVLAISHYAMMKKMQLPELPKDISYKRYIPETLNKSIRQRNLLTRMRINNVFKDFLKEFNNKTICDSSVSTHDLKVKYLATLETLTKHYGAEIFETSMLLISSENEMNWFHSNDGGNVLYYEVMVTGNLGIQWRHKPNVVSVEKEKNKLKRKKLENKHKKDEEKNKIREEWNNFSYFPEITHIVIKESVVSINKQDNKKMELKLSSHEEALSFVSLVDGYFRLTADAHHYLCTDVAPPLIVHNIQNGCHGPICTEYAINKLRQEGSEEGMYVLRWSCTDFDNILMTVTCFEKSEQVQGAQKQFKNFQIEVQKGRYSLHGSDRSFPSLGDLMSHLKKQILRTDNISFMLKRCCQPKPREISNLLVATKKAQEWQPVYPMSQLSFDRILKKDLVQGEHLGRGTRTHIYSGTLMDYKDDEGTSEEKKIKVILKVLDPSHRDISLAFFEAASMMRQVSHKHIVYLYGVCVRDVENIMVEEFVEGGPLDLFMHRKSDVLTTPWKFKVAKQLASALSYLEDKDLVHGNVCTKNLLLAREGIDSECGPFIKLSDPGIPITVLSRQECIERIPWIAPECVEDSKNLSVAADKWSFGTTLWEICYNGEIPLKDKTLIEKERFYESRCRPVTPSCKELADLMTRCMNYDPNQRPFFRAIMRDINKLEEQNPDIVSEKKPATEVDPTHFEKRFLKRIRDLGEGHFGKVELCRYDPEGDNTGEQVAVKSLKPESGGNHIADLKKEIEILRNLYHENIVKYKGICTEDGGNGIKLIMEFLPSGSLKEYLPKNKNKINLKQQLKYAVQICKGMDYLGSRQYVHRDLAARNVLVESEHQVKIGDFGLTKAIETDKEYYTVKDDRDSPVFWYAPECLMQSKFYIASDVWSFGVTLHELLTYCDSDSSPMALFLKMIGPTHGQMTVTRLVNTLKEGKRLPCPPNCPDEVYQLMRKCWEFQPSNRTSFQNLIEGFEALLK
Sequence of Activin receptor type-2B (Q13705 whole entry): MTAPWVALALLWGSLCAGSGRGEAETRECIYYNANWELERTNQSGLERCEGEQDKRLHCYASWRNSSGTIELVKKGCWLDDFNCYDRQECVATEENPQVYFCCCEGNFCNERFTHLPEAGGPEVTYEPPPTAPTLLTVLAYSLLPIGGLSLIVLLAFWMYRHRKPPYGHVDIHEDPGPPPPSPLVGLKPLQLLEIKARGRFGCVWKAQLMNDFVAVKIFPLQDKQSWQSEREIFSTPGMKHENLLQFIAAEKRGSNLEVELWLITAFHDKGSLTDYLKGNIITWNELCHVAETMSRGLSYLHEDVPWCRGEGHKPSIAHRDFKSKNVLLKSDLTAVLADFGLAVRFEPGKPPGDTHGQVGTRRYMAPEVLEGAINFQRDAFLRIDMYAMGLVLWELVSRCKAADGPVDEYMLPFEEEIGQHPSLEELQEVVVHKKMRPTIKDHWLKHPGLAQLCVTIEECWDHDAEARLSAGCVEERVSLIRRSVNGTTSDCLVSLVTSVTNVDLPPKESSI
Sequence of Ephrin type-A receptor 7 (Q15375 whole entry): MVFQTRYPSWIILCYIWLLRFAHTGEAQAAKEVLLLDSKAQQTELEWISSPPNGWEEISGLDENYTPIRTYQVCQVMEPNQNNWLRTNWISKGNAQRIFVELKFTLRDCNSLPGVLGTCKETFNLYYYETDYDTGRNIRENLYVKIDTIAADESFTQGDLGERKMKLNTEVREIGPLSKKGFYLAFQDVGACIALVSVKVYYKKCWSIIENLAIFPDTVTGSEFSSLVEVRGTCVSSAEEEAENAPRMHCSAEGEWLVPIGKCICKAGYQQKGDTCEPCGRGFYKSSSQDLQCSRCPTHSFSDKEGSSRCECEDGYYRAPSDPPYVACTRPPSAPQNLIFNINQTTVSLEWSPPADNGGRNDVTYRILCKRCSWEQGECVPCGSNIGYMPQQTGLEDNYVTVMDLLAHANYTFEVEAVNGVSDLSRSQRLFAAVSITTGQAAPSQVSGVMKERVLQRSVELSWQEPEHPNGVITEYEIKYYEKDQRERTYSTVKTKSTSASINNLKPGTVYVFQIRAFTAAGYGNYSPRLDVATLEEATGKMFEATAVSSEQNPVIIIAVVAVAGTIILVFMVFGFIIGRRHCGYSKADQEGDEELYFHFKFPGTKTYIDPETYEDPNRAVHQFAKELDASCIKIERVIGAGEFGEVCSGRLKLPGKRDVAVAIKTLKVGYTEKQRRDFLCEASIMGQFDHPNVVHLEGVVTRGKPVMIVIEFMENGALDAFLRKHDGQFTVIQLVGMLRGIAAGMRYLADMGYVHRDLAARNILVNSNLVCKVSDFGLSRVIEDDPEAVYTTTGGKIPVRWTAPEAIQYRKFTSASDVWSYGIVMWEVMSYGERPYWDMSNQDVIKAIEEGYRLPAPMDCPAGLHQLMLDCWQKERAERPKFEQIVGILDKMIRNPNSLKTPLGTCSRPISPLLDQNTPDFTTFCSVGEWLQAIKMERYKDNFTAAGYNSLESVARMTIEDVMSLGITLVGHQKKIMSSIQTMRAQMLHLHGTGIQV

Turning to `CCNC(=O)C#Cc1ccc2c(c1)NC(=O)/C2=C(\Nc1ccc(CN(C)C)cc1)c1ccccc1`, the Kd was > 30 µM (inactive) at Activin receptor type-2B; > 30 µM (inactive) in experiment [1]; > 30 µM (inactive) in [2]; 0.469 µM (active) in experiment [3]; > 30 µM (inactive) on Ephrin type-A receptor 7; > 30 µM (inactive) in experiment [4]. The dissociation constant (Kd) was 0.9 µM (active) in [5]; > 30 µM (inactive) in experiment [6]; > 30 µM (inactive) in experiment [7]; > 30 µM (inactive) in [8]; > 30 µM (inactive) in [9]; > 30 µM (inactive) in [10].
For `C=CC(=O)N1CCC[C@H](n2c(=O)n(-c3ccc(Oc4ccccc4)cc3)c3c(N)ncnc32)C1`, the Kd (on Activin receptor type-2B; in experiment [1]; in [2]; in [3]; at Ephrin type-A receptor 7; in [4]) was > 30 µM (inactive) in each case. Besides, the equilibrium dissociation constant (Kd) is 0.006 µM in experiment [5]; > 30 µM (inactive) in experiment [6]; > 30 µM (inactive) in [7]; > 30 µM (inactive) in experiment [8]; > 30 µM (inactive) in experiment [9]; > 30 µM (inactive) in [10].
Regarding `Cc1nc2cc(-c3nn(C(C)C)c4ncnc(N)c34)ccc2o1`, the dissociation constant Kd at Activin receptor type-2B was 0.901 µM (active); in [1] it was > 30 µM (inactive); in experiment [2], > 30 µM (inactive); in experiment [3], 0.881 µM (active); at Ephrin type-A receptor 7, > 30 µM (inactive); in experiment [4], > 30 µM (inactive). Further, the Kd in experiment [5], in [6], in [7], in experiment [8], in experiment [9] and in [10] was > 30 µM (inactive) in each case.
On to `COCc1c(-c2ccc(NC(=O)Nc3cc(C(F)(F)F)ccc3F)c(F)c2)c2c(N)ncnn2c1CN1CCOCC1`, for which the Kd on Activin receptor type-2B was > 30 µM (inactive); in experiment [1], > 30 µM (inactive); in experiment [2], > 30 µM (inactive); in experiment [3], 0.314 µM (active); on Ephrin type-A receptor 7, > 30 µM (inactive); in experiment [4], > 30 µM (inactive). Moreover, the Kd in experiment [5], in [6], in [7], in experiment [8], in experiment [9] and in experiment [10] was > 30 µM (inactive) in each case.
Consider `Nc1ncnc2c1c(-c1cccc(OCc3ccccc3)c1)cn2[C@H]1C[C@@H](CN2CCC2)C1` [AEW-541], for which the Kd (at Activin receptor type-2B; in experiment [1]; in [2]; in [3]; on Ephrin type-A receptor 7; in [4]) was > 30 µM (inactive) each time. Moreover, the equilibrium dissociation constant (Kd) in [5] was 0.623 µM (active); in [6] it was > 30 µM (inactive); in [7], > 30 µM (inactive); in experiment [8], > 30 µM (inactive); in experiment [9], > 30 µM (inactive); in experiment [10] it was > 30 µM (inactive).
On to `CC(C)(C)c1nc(-c2cccc(NS(=O)(=O)c3c(F)cccc3F)c2F)c(-c2ccnc(N)n2)s1` [DABRAFENIB], for which the Kd at Activin receptor type-2B is > 30 µM (inactive); in experiment [1], > 30 µM (inactive); in experiment [2], 0.364 µM (active); in [3] it was > 30 µM (inactive); on Ephrin type-A receptor 7, > 30 µM (inactive); in experiment [4], > 30 µM (inactive). Besides, the Kd in experiment [5] was 1.65 µM; in [6], > 30 µM (inactive); in experiment [7], > 30 µM (inactive); in experiment [8], > 30 µM (inactive); in [10] it was > 30 µM (inactive).
As to `O=C(Nc1nc2cccc(-c3ccc(CN4CCS(=O)(=O)CC4)cc3)n2n1)C1CC1` [FILGOTINIB], the Kd was > 30 µM (inactive) at Activin receptor type-2B; 3.63 µM (active) in experiment [1]; > 30 µM (inactive) in experiment [2]; > 30 µM (inactive) in experiment [3]; > 30 µM (inactive) on Ephrin type-A receptor 7; > 30 µM (inactive) in [4]. Also, the Kd in [5], in [7], in experiment [8], in experiment [9] and in experiment [10] was > 30 µM (inactive) in each case.
Turning to `CCn1cc(-c2ccnc3[nH]c(-c4cccc(CN(C)C)c4)cc23)c(-c2ccc(NC(=O)N(C)C)cc2)n1` [GSK-1070916], the Kd in experiment [1] was > 30 µM (inactive); in experiment [2], > 30 µM (inactive); in [3], 0.008 µM (active); at Ephrin type-A receptor 7, > 30 µM (inactive); in experiment [4] it was > 30 µM (inactive); in experiment [5], > 30 µM (inactive). Further, the Kd in experiment [6], in experiment [7], in [8], in experiment [9] and in experiment [10] was > 30 µM (inactive) each time.
In the case of `CNC(=O)c1nn(C)c2c1C(C)(C)Cc1cnc(Nc3ccc(N4CCN(C)CC4)cc3)nc1-2` [MILCICLIB], the Kd on Activin receptor type-2B was > 30 µM (inactive); in experiment [2], > 30 µM (inactive); in experiment [3], 4.17 µM (active); at Ephrin type-A receptor 7, > 30 µM (inactive); in [4] it was > 30 µM (inactive); in experiment [5], 1.32 µM (active). Further, the Kd in experiment [6], in experiment [7], in experiment [8], in experiment [9] and in [10] was > 30 µM (inactive) throughout.
Take `COc1ncc(-c2ccc3nccc(-c4ccnnc4)c3c2)cc1NS(=O)(=O)c1ccc(F)cc1F` [OMIPALISIB]: the Kd (at Activin receptor type-2B; in experiment [1]; in experiment [2]; in experiment [3]; on Ephrin type-A receptor 7; in experiment [4]) was > 30 µM (inactive) each time. For the same compound, the Kd in experiment [5], in experiment [6], in experiment [7], in experiment [8] and in experiment [10] was > 30 µM (inactive) throughout.
Take `CC(C)c1cc(CNc2nc(Nc3cc(C4CC4)[nH]n3)cc(N3CCN(C)CC3)n2)on1` [XL-228]: the Kd on Activin receptor type-2B was > 30 µM (inactive); in experiment [1], 2.34 µM (active); in experiment [2] it was > 30 µM (inactive); on Ephrin type-A receptor 7, 0.017 µM (active); in experiment [4] it was > 30 µM (inactive); in [5], 6.39 µM (active). The Kd in [6], in experiment [7], in experiment [8], in experiment [9] and in experiment [10] was > 30 µM (inactive) throughout.

A word on the Kd: it is the constant that tells how readily two partners part at equilibrium.
